# Laboratory results reported in patent US8921267B2, “Safening 6-(trisubstituted phenyl)-4-amino-2-pyridinecarboxylate herbicide injury on cereal crops” (Dow AgroSciences LLC, priority 2008, dated 2014).
# Counter-ions that a name gives are not always drawn.
# What was measured:
# Type in all cases: in vivo
# [1] = tested on: wild pansy (Viola tricolor L; VIOTR); assay: Postemergence herbicidal activity, greenhouse, visual injury: wild pansy; design: key: visual injury, 0–100%: 0 = no injury, 100 = complete kill
# Procedure, shortened: (§1)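 Greenhouse-grown weeds at second–third true leaf stage were sprayed postemergence at 187 L/ha with safener/herbicide two-way mixtures in 1.5% v/v crop oil concentrate. Visual injury was scored 0–100% against solvent-blank controls after 20-22 d. Expected mixture activity was computed by Colby's equation.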
# [2] = tested on: wheat (Triticum aestivum L; TRZAS); assay: Postemergence herbicidal safening, greenhouse, visual injury: wheat
# Procedure, shortened: (§2)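 Percent visual injury relative to solvent-blank controls, rated 20-22 d after treatment on a 0 (none) to 100 (complete kill) scale. Expected mixture response came from Colby's equation, Expected=A+B−(A×B/100). Sprays contained 1.5% v/v crop oil concentrate at 187 L/ha.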
# [3] = tested on: barley (Hordeum vulgare L; HORVS); assay: Postemergence herbicidal safening, greenhouse, visual injury: barley
# Procedure, shortened: as §2
# [4] = tested on: wild buckwheat (Polygonum convolvulus L; POLCO); assay: Postemergence herbicidal activity, greenhouse, visual injury: wild buckwheat
# Procedure, shortened: as §2
# [5] = tested on: cleavers (Galium aparine L; GALAP); assay: Postemergence herbicidal activity, greenhouse, visual injury: cleavers; design: key: visual injury, 0–100%: 0 = no injury, 100 = complete kill
# Procedure, shortened: as §2
# [6] = tested on: Russian thistle (Salsola iberica L; SASKR); assay: Postemergence herbicidal activity, greenhouse, visual injury: Russian thistle; design: key: visual injury, 0–100%: 0 = no injury, 100 = complete kill
# Procedure, shortened: as §2
# [7] = tested on: corn poppy (Papaver rhoeas L; PAPRH); assay: Postemergence herbicidal activity, greenhouse, visual injury: corn poppy
# Procedure, shortened: as §1
# [8] = tested on: chickweed (Stellaria media L; STEME); assay: Postemergence herbicidal activity, greenhouse, visual injury: chickweed; design: key: visual injury, 0–100%: 0 = no injury, 100 = complete kill
# Procedure, shortened: as §2
# [9] = tested on: scented mayweed (Matricaria chamomila L; MATCH); assay: Postemergence herbicidal activity, greenhouse, visual injury: scented mayweed; design: key: % visual injury: 0 = no injury, 100 = complete kill
# Description: (§3) Evaluation of Postemergence Herbicidal Safening in Cereal Crops
# (§4) Seeds of the desired test plant species were planted in Sun Gro MetroMix® 306 planting mixture, which typically has a pH of 6.0 to 6.8 and an organic matter content of about 30 percent, in plastic pots with a surface area of 103.2 square centimeters (cm^2). When required to ensure good germination and healthy plants, a fungicide treatment and/or other chemical or physical treatment was applied. The plants were grown for 7-36 days (d) in a greenhouse with an approximate 14-hour (h) photoperiod which was maintained at about 18° C. during the day and 17° C. during the night. Nutrients and water were added on a regular basis and supplemental lighting was provided with overhead metal halide 1000-Watt lamps as necessary. The plants were employed for testing when they reached the second or third true leaf stage.
# (§5) Weighed amounts of esters (methyl) or salts (TEA [triethylammonium], K [potassium]) of 4-amino-3-chloro-6-(4-chloro-2-fluoro-3-methoxyphenyl)pyridine-2-carboxylic acid (Compound 1) were dissolved in a volume of 97:3 volume/volume (v/v) acetone/dimethylsulfoxide (DMSO) to obtain stock solutions. […] The concentrated stock solutions were diluted with an aqueous mixture of 1.5% v/v of Agri-dex crop oil concentrate to provide the appropriate application rates. Compound requirements are based upon a 12 mL application volume at a rate of 187 liters per hectare (L/ha). Stocks solutions of the safeners were prepared following the same procedure. Spray solutions of the safeners and experimental compound mixtures were prepared by adding the stock solutions to the appropriate amount of dilution solution to form a 12 mL spray solution with active ingredients in two-way combinations. Formulated compounds were applied to the plant material with an overhead Mandel track sprayer equipped with 8002E nozzles calibrated to deliver 187 L/ha over an application area of 0.503 square meters (m^2) at a spray height of 18 inches (43 centimeters (cm)) above average plant canopy. Control plants were sprayed in the same manner with the solvent blank.
# (§6) The treated plants and control plants were placed in a greenhouse as described above and watered by sub-irrigation to prevent wash-off of the test compounds. After 20-22 d, the condition of the test plants as compared with that of the control plants was determined visually and scored on a scale of 0 to 100 percent where 0 corresponds to no injury and 100 corresponds to complete kill.
# (§7) Colby's equation was used to determine the herbicidal effects expected from the mixtures (Colby, S. R. Calculation of the synergistic and antagonistic response of herbicide combinations. Weeds 1967, 15, 20-22.).
# (§8) The following equation was used to calculate the expected activity of mixtures containing two active ingredients, A and B: Expected=A+B−(A×B/100)
# (§9) A=observed efficacy of active ingredient A at the same concentration as used in the mixture.
# (§10) B=observed efficacy of active ingredient B at the same concentration as used in the mixture.
# [10] = tested on: purple deadnettle (Lamium purpureum L; LAMPU); assay: Postemergence herbicidal activity, greenhouse, visual injury: purple deadnettle; design: key: visual injury, 0–100%: 0 = no injury, 100 = complete kill
# Procedure, shortened: as §1
# [11] = tested on: kochia (Kochia scoparia L; KCHSC); assay: Postemergence herbicidal activity, greenhouse, visual injury: kochia; design: key: % visual injury: 0 = no injury, 100 = complete kill
# Description: as §3, §4, §5, §6, §7, §8, §9, §10
# [12] = tested on: bird's-eye speedwell (Veronica persica L; VERPE); assay: Postemergence herbicidal activity, greenhouse, visual injury: bird's-eye speedwell; design: key: visual injury, 0–100%: 0 = no injury, 100 = complete kill
# Procedure, shortened: as §2
smiles,measurement,setting,value
"COc1c(Cl)ccc(-c2cc(N)c(Cl)c(C(=O)O)n2)c1F [Compound 1 TEA salt, 4-amino-3-chloro-6-(4-chloro-2-fluoro-3-methoxyphenyl)pyridine-2-carboxylic acid]",VIOTR Ob,[1]; applied alone at 140 g/ha,69%
same,VIOTR Ob,"[1]; applied alone, 140 g/ha",69
same,TRZAS Ob,[2]; applied alone at 140 g/ha,26%
same,TRZAS Ob,"[2]; applied alone, 140 g/ha",26%
same,HORVS Ob,[3]; applied alone at 140 g/ha,16%
same,HORVS Ob,"[3]; applied alone, 140 g/ha",16%
same,POLCO Ob,[4]; applied alone at 140 g/ha,100%
same,POLCO Ob,"[4]; applied alone, 140 g/ha",100
same,GALAP Ob,[5]; applied alone at 140 g/ha,100%
same,GALAP Ob,"[5]; applied alone, 140 g/ha",100
same,SASKR Ob,[6]; applied alone at 140 g/ha,88%
same,SASKR Ob,"[6]; applied alone, 140 g/ha",88
same,PAPRH Ob,[7]; applied alone at 140 g/ha,100%
same,PAPRH Ob,"[7]; applied alone, 140 g/ha",100
same,STEME Ob,[8]; applied alone at 140 g/ha,94%
same,STEME Ob,"[8]; applied alone, 140 g/ha",94
same,MATCH Ob,[9]; applied alone at 140 g/ha,80%
same,MATCH Ob,"[9]; applied alone, 140 g/ha",80
same,LAMPU Ob,[10]; applied alone at 140 g/ha,99%
same,LAMPU Ob,"[10]; applied alone, 140 g/ha",99
same,KCHSC Ob,[11]; applied alone at 140 g/ha,94%
same,KCHSC Ob,"[11]; applied alone, 140 g/ha",94
same,VERPE Ob,[12]; applied alone at 140 g/ha,85%
same,VERPE Ob,"[12]; applied alone, 140 g/ha",85
CC1(C)OC(c2ccco2)CN1C(=O)C(Cl)Cl (stereo not drawn) [Furilazole (MON 13900)],VIOTR Ob,"[1]; applied alone, 17.5 g/ha",0
same,VIOTR Ob,"[1]; applied alone, 35 g/ha",0
same,VIOTR Ob,"[1]; applied alone, 70 g/ha",0
same,VIOTR Ob,"[1]; applied alone, 140 g/ha",0
same,TRZAS Ob,"[2]; applied alone, 17.5 g/ha",0%
same,TRZAS Ob,"[2]; applied alone, 35 g/ha",0%
same,TRZAS Ob,"[2]; applied alone, 70 g/ha",0%
same,TRZAS Ob,"[2]; applied alone, 140 g/ha",0%
same,HORVS Ob,"[3]; applied alone, 17.5 g/ha",0%
same,HORVS Ob,"[3]; applied alone, 35 g/ha",0%
same,HORVS Ob,"[3]; applied alone, 70 g/ha",0%
same,HORVS Ob,"[3]; applied alone, 140 g/ha",0%
same,POLCO Ob,"[4]; applied alone, 17.5 g/ha",0
same,POLCO Ob,"[4]; applied alone, 35 g/ha",0
same,POLCO Ob,"[4]; applied alone, 70 g/ha",0
same,POLCO Ob,"[4]; applied alone, 140 g/ha",0
same,GALAP Ob,"[5]; applied alone, 17.5 g/ha",0
same,GALAP Ob,"[5]; applied alone, 35 g/ha",0
same,GALAP Ob,"[5]; applied alone, 70 g/ha",0
same,GALAP Ob,"[5]; applied alone, 140 g/ha",0
same,SASKR Ob,"[6]; applied alone, 17.5 g/ha",0
same,SASKR Ob,"[6]; applied alone, 35 g/ha",0
same,SASKR Ob,"[6]; applied alone, 70 g/ha",0
same,SASKR Ob,"[6]; applied alone, 140 g/ha",0
same,PAPRH Ob,"[7]; applied alone, 17.5 g/ha",0
same,PAPRH Ob,"[7]; applied alone, 35 g/ha",0
same,PAPRH Ob,"[7]; applied alone, 70 g/ha",0
same,PAPRH Ob,"[7]; applied alone, 140 g/ha",0
same,STEME Ob,"[8]; applied alone, 17.5 g/ha",0
same,STEME Ob,"[8]; applied alone, 35 g/ha",0
same,STEME Ob,"[8]; applied alone, 70 g/ha",0
same,STEME Ob,"[8]; applied alone, 140 g/ha",0
same,MATCH Ob,"[9]; applied alone, 17.5 g/ha",0
same,MATCH Ob,"[9]; applied alone, 35 g/ha",0
same,MATCH Ob,"[9]; applied alone, 70 g/ha",0
same,MATCH Ob,"[9]; applied alone, 140 g/ha",0
same,LAMPU Ob,"[10]; applied alone, 17.5 g/ha",0
same,LAMPU Ob,"[10]; applied alone, 35 g/ha",0
same,LAMPU Ob,"[10]; applied alone, 70 g/ha",0
same,LAMPU Ob,"[10]; applied alone, 140 g/ha",0
same,KCHSC Ob,"[11]; applied alone, 17.5 g/ha",0
same,KCHSC Ob,"[11]; applied alone, 35 g/ha",0
same,KCHSC Ob,"[11]; applied alone, 70 g/ha",0
same,KCHSC Ob,"[11]; applied alone, 140 g/ha",0
same,VERPE Ob,"[12]; applied alone, 17.5 g/ha",0
same,VERPE Ob,"[12]; applied alone, 35 g/ha",0
same,VERPE Ob,"[12]; applied alone, 70 g/ha",0
same,VERPE Ob,"[12]; applied alone, 140 g/ha",0
N#C/C(=N\OCC1OCCO1)c1ccccc1 [Oxabetrinil],VIOTR Ob,"[1]; applied alone, 17.5 g/ha",0
same,VIOTR Ob,"[1]; applied alone, 35 g/ha",0
same,VIOTR Ob,"[1]; applied alone, 70 g/ha",0
same,VIOTR Ob,"[1]; applied alone, 140 g/ha",0
same,TRZAS Ob,"[2]; applied alone, 17.5 g/ha",0%
same,TRZAS Ob,"[2]; applied alone, 35 g/ha",0%
same,TRZAS Ob,"[2]; applied alone, 70 g/ha",0%
same,TRZAS Ob,"[2]; applied alone, 140 g/ha",0%
same,HORVS Ob,"[3]; applied alone, 17.5 g/ha",0%
same,HORVS Ob,"[3]; applied alone, 35 g/ha",0%
same,HORVS Ob,"[3]; applied alone, 70 g/ha",0%
same,HORVS Ob,"[3]; applied alone, 140 g/ha",0%
same,POLCO Ob,"[4]; applied alone, 17.5 g/ha",0
same,POLCO Ob,"[4]; applied alone, 35 g/ha",0
same,POLCO Ob,"[4]; applied alone, 70 g/ha",0
same,POLCO Ob,"[4]; applied alone, 140 g/ha",0
same,GALAP Ob,"[5]; applied alone, 17.5 g/ha",0
same,GALAP Ob,"[5]; applied alone, 35 g/ha",0
same,GALAP Ob,"[5]; applied alone, 70 g/ha",0
same,GALAP Ob,"[5]; applied alone, 140 g/ha",0
same,SASKR Ob,"[6]; applied alone, 17.5 g/ha",0
same,SASKR Ob,"[6]; applied alone, 35 g/ha",0
same,SASKR Ob,"[6]; applied alone, 70 g/ha",0
same,SASKR Ob,"[6]; applied alone, 140 g/ha",0
same,PAPRH Ob,"[7]; applied alone, 17.5 g/ha",0
same,PAPRH Ob,"[7]; applied alone, 35 g/ha",0
same,PAPRH Ob,"[7]; applied alone, 70 g/ha",0
same,PAPRH Ob,"[7]; applied alone, 140 g/ha",0
same,STEME Ob,"[8]; applied alone, 17.5 g/ha",0
same,STEME Ob,"[8]; applied alone, 35 g/ha",0
same,STEME Ob,"[8]; applied alone, 70 g/ha",0
same,STEME Ob,"[8]; applied alone, 140 g/ha",0
same,MATCH Ob,"[9]; applied alone, 17.5 g/ha",0
same,MATCH Ob,"[9]; applied alone, 35 g/ha",0
same,MATCH Ob,"[9]; applied alone, 70 g/ha",0
same,MATCH Ob,"[9]; applied alone, 140 g/ha",0
same,LAMPU Ob,"[10]; applied alone, 17.5 g/ha",0
same,LAMPU Ob,"[10]; applied alone, 35 g/ha",0
same,LAMPU Ob,"[10]; applied alone, 70 g/ha",0
same,LAMPU Ob,"[10]; applied alone, 140 g/ha",0
same,KCHSC Ob,"[11]; applied alone, 17.5 g/ha",0
same,KCHSC Ob,"[11]; applied alone, 35 g/ha",0
same,KCHSC Ob,"[11]; applied alone, 70 g/ha",0
same,KCHSC Ob,"[11]; applied alone, 140 g/ha",0
same,VERPE Ob,"[12]; applied alone, 17.5 g/ha",0
same,VERPE Ob,"[12]; applied alone, 35 g/ha",0
same,VERPE Ob,"[12]; applied alone, 70 g/ha",0
same,VERPE Ob,"[12]; applied alone, 140 g/ha",0
